From patent US20030152536A1, “Cosmetic preparations containing waltheria indica extracts” (priority 2000, published 2003)

System: melanin index of forearm skin
Experiment: In vivo lightening of color on the forearm of 41 volunteers with Asiatic skin color (melanin index D56/D0)
Parameters: species or system human
Settings: D0 melanin index before, D56 after treatment
Procedure: The effectiveness of the preparations according to the invention by comparison with known preparations was tested in vitro by inhibition of the synthesis of melanin in B 16 melanocytes. The concentration of the active principles (in % by weight) in the cell culture medium and the inhibition in %-rel. in relation to the blank value are shown. An in vivo test was also carried out by measuring the lightening of color on the extensor muscle side of the forearm of 41 volunteers with Asiatic skin color. The depigmenting activity D56/D0 is shown, D0 standing for the melanin index before the treatment and D56 for the index after the treatment.

OC[C@H]1O[C@@H](Oc2ccc(O)cc2)[C@H](O)[C@@H](O)[C@@H]1O [Arbutin]
D56/D0 (concentration 0.1): 54
D56/D0 (concentration 0.3): 30
